# According to publication PMC4944999 (PLoS ONE, 2016):
# Counter-ions that a name gives are not always drawn. Where no end group is shown, it is not given here.
# Key:
# [1] = system: Recombinant neuraminidase of Influenza A virus (A/Aichi/2/1968, H3N2); type: biochemical
# HA from Aichi H3N2 = target: T1, HA from Aichi H3N2 (Influenza A virus, UniProt P03437); assay: biochemical; type: binding, Influenza A/Aichi/2/68 H3N2
# T1 construct: purchased Sino Biological 11707-V08H
# [2] = system: Aichi H3N2 binding to fetuin; assay: SPR inhibition of virus binding to immobilized fetuin; design: species or system Influenza A/Aichi/2/68 H3N2; settings: Aichi H3N2 binding to fetuin-immobilized SPR surface, virus preincubated with inhibitor 37°C at least 15 min, four parameter logistic fit, mean ± SEM n≥2
# Method: Measurements were performed on a Biacore™ T200 (GE-Healthcare Bio-Sciences AB) using CM5 chips, and running buffer HBSP (10 mM Hepes, 150 mM NaCl, 0.05% Tween 20, pH 7.4) at 25°C. Peptides and proteins were immobilized via amine coupling with EDC/NHS at a flow rate of 10 μl min^-1, according to the manufacturer’s instructions (GE Healthcare). Optimum preconcentration was evaluated before, using acetate and phosphate buffers (10 mM) of pH 4 to 7, and ligand concentrations of 10 μg ml^-1. For the immobilization of biotinylated sialyllactose (Lectinity), neutravidin (Thermo Fisher Scientific) (100 μg ml^-1) was immobilized by amine coupling at pH 5.5 enabling high ligand density. Biotinylated sialyllactose was then injected at a concentration of 10 μg ml^-1 in HBSP for 3 min.
# A constant concentration of 50 or 100 μg ml^-1 Aichi H3N2 virus was used as analyte, while the concentration of the inhibitors was varied. The suspensions of virus and inhibitor were mixed and subsequently incubated on a Thriller® thermoshaker at 500 rpm and 37°C for at least 15 min to reach equilibrium before injection on the SPR surface. The inhibitors used were peptides or α-2,3’- and α-2,6’-sialyllactose (Carbosynth). […] Inhibition was calculated against the mean value of at least five binding events with the virus alone, using the sigmoidal four parameter logistic fit (Origin).
# Aichi H3N2 virus = type: binding, Influenza A/Aichi/2/68 H3N2 X31; settings: for Virus binding on peptide-modified surfaces: pH 7.4
# [3] = due to its amphiphilic character; cited from earlier work
# Aichi H3N2 = type: cell-based, Influenza A/Aichi/2/68 H3N2
# [4] = target: hemagglutinin (HA) of low pathogenic influenza A/Mute Swan/Rostock/R901/2006 H7N1 K3141, on virus particles (influenza A virus A/Mute Swan/Rostock/R901/2006 H7N1); assay: SPR
# [5] = target: hemagglutinin (HA) of low pathogenic influenza A/Mute Swan/Rostock/R901/2006 H7N1 K3141, on virus particles (influenza A virus A/Mute Swan/Rostock/R901/2006 H7N1)
molecule,measurement,setting,value
"CC(=O)N[C@H]1[C@H]([C@H](O)[C@H](O)CO)OC(C(=O)O)=C[C@@H]1O [DANA, N-acetyl-2,3-dehydro-2-deoxy-neuraminic acid disodium salt]",IC50,[1],2200 ± 300 nM
ARDFYDYDVFYYAMD-NH2 [PeB],Kd,HA from Aichi H3N2,56.8 µM
same,IC50,[2],75 ± 13 µM
same,IC50,[2]; listed as PeB^GF,13 ± 3 µM
LGVIWAGGNTNY [PeC],Minimum detection level (lowest virus concentration showing binding 3 times above the SPR response of a buffer control),Aichi H3N2 virus,6.25 μg Aichi H3N2 virus protein ml^-1
same,Virus binding on peptide-modified surfaces,Aichi H3N2 virus,Significant virus binding
RRKKAAVALLPAVLLALLAP [EB],Micelle formation,[3],forms micelles
same,fold lower Ki(HAI) as compared to PeB^GF,Aichi H3N2,20 fold
SGFLLISNGVHWV-NH2 [PeA],Virus binding on peptide-modified surfaces,Aichi H3N2 virus,not
ARDFYDYDVFYYAMD-NH2 [PeB (…-amide)],IC50,[4],40 µM
same,IC50 of microneutralization of Rostock H7N1 on MDCK II cells,[5],177 µM
ARDFYGYDVFFYAMD-NH2 [PeB^GF (…-amide)],IC50,[4],30 µM
same,IC50 of microneutralization of Rostock H7N1 on MDCK II cells,[5],96 µM
